pIC50: −log10 of the molar value.
test: Inhibition of binding of [125I]-CCK-8 to the cholecystokinin type B receptor

Row | SMILES | pIC50
1 | COc1cccc(NC(=O)NC2N=C(c3ccccc3)c3ccccc3N(CC(=O)N3CCCC3)C2=O)c1 (configuration not stated) [1-(3-Methoxy-phenyl)-3-[2-oxo-1-(2-oxo-2-pyrrolidin-1-yl-ethyl)-5-phenyl-2,3-dihydro-1H-benzo[e][1,4]diazepin-3-yl]-urea] | 9.62
2 | COc1cccc(NC(=O)NC2N=C(c3ccccc3)c3ccccc3N(CC(=O)N3CCN(C)CC3)C2=O)c1 (configuration not stated) [1-(3-Methoxy-phenyl)-3-{1-[2-(4-methyl-piperazin-1-yl)-2-oxo-ethyl]-2-oxo-5-phenyl-2,3-dihydro-1H-benzo[e][1,4]diazepin-3-yl}-urea] | 8.36
3 | CN1C(=O)C(NC(=O)Nc2ccc(Br)cc2)N=C(c2ccccc2)c2ccccc21 (configuration not stated) [1-(4-Bromo-phenyl)-3-(1-methyl-2-oxo-5-phenyl-2,3-dihydro-1H-benzo[e][1,4]diazepin-3-yl)-urea] | 7.32
4 | O=C(Nc1ccc(Cl)cc1)NC1N=C(c2ccccc2)c2ccccc2NC1=O (configuration not stated) [1-(4-Chloro-phenyl)-3-(2-oxo-5-phenyl-2,3-dihydro-1H-benzo[e][1,4]diazepin-3-yl)-urea] | 6.57
5 | CN1C(=O)[C@H](NC(=O)Nc2ccc(Cl)cc2)N=C(c2ccccc2)c2ccccc21 [1-(4-Chloro-phenyl)-3-((R)-1-methyl-2-oxo-5-phenyl-2,3-dihydro-1H-benzo[e][1,4]diazepin-3-yl)-urea] | 7.70
6 | CN1C(=O)[C@@H](NC(=O)Nc2ccc(Cl)cc2)N=C(c2ccccc2)c2ccccc21 [1-(4-Chloro-phenyl)-3-((S)-1-methyl-2-oxo-5-phenyl-2,3-dihydro-1H-benzo[e][1,4]diazepin-3-yl)-urea] | 5.96
7 | O=C(Nc1ccc(Cl)cc1)NC1N=C(c2ccccc2)c2ccccc2N(C[C@@H](O)CO)C1=O (some centres not stated) [1-(4-Chloro-phenyl)-3-[1-(2,3-dihydroxy-propyl)-2-oxo-5-phenyl-2,3-dihydro-1H-benzo[e][1,4]diazepin-3-yl]-urea] | 6.98
8 | O=C(Nc1ccc(Cl)cc1)NC1N=C(c2ccccc2)c2ccccc2N(C[C@@H](O)CN2CCCC2)C1=O (some centres not stated) [1-(4-Chloro-phenyl)-3-[1-(2-hydroxy-3-pyrrolidin-1-yl-propyl)-2-oxo-5-phenyl-2,3-dihydro-1H-benzo[e][1,4]diazepin-3-yl]-urea] | 6.52
9 | CCN(CC)C[C@H](O)CN1C(=O)C(NC(=O)Nc2ccc(Cl)cc2)N=C(c2ccccc2)c2ccccc21 (some centres not stated) [1-(4-Chloro-phenyl)-3-[1-(3-diethylamino-2-hydroxy-propyl)-2-oxo-5-phenyl-2,3-dihydro-1H-benzo[e][1,4]diazepin-3-yl]-urea] | 6.39
10 | O=C(Nc1ccc(Cl)cc1)NC1N=C(c2ccccc2)c2ccccc2N(Cc2nnn[nH]2)C1=O (configuration not stated) [1-(4-Chloro-phenyl)-3-[2-oxo-5-phenyl-1-(1H-tetrazol-5-ylmethyl)-2,3-dihydro-1H-benzo[e][1,4]diazepin-3-yl]-urea] | 6.31
11 | CN1CCN(C(=O)CN2C(=O)C(NC(=O)Nc3ccc(Cl)cc3)N=C(c3ccccc3)c3ccccc32)CC1 (configuration not stated) [1-(4-Chloro-phenyl)-3-{1-[2-(4-methyl-piperazin-1-yl)-2-oxo-ethyl]-2-oxo-5-phenyl-2,3-dihydro-1H-benzo[e][1,4]diazepin-3-yl}-urea] | 9.10
12 | CN1C(=O)C(NC(=O)Nc2ccc(F)cc2)N=C(c2ccccc2)c2ccccc21 (configuration not stated) [1-(4-Fluoro-phenyl)-3-(1-methyl-2-oxo-5-phenyl-2,3-dihydro-1H-benzo[e][1,4]diazepin-3-yl)-urea] | 7.18
13 | COc1ccc(NC(=O)NC2N=C(c3ccccc3)c3ccccc3N(C)C2=O)cc1 (configuration not stated) [1-(4-Methoxy-phenyl)-3-(1-methyl-2-oxo-5-phenyl-2,3-dihydro-1H-benzo[e][1,4]diazepin-3-yl)-urea] | 7.59
14 | CN1C(=O)C(NC(=O)Nc2ccc(N)nc2)N=C(c2ccccc2)c2ccccc21 (configuration not stated) [1-(6-Amino-pyridin-3-yl)-3-(1-methyl-2-oxo-5-phenyl-2,3-dihydro-1H-benzo[e][1,4]diazepin-3-yl)-urea] | 6.30
15 | CN1C(=O)C(NC(=O)Nc2ccc(Cl)nc2)N=C(c2ccccc2)c2ccccc21 (configuration not stated) [1-(6-Chloro-pyridin-3-yl)-3-(1-methyl-2-oxo-5-phenyl-2,3-dihydro-1H-benzo[e][1,4]diazepin-3-yl)-urea] | 7.34
16 | COc1ccc(NC(=O)NC2N=C(c3ccccc3)c3ccccc3N(C)C2=O)cn1 (configuration not stated) [1-(6-Methoxy-pyridin-3-yl)-3-(1-methyl-2-oxo-5-phenyl-2,3-dihydro-1H-benzo[e][1,4]diazepin-3-yl)-urea] | 6.34
17 | CN1C(=O)C(NC(=O)Nc2ccc3c(c2)OCO3)N=C(c2ccccc2)c2ccccc21 (configuration not stated) [1-Benzo[1,3]dioxol-5-yl-3-(1-methyl-2-oxo-5-phenyl-2,3-dihydro-1H-benzo[e][1,4]diazepin-3-yl)-urea] | 7.59
18 | CN1C(=O)C(NC(=O)NCc2ccccc2)N=C(c2ccccc2)c2ccccc21 (configuration not stated) [1-Benzyl-3-(1-methyl-2-oxo-5-phenyl-2,3-dihydro-1H-benzo[e][1,4]diazepin-3-yl)-urea] | 6.07
19 | CN1C(=O)C(NC(=O)Nc2cccc(-c3ccccc3)c2)N=C(c2ccccc2)c2ccccc21 (configuration not stated) [1-Biphenyl-3-yl-3-(1-methyl-2-oxo-5-phenyl-2,3-dihydro-1H-benzo[e][1,4]diazepin-3-yl)-urea] | 6.95
20 | CN1C(=O)C(NC(=O)NC2CCCCC2)N=C(c2ccccc2)c2ccccc21 (configuration not stated) [1-Cyclohexyl-3-(1-methyl-2-oxo-5-phenyl-2,3-dihydro-1H-benzo[e][1,4]diazepin-3-yl)-urea] | 5.52
21 | CN1C(=O)C(NC(=O)Nc2ccc3c(c2)CCC3)N=C(c2ccccc2)c2ccccc21 (configuration not stated) [1-Indan-5-yl-3-(1-methyl-2-oxo-5-phenyl-2,3-dihydro-1H-benzo[e][1,4]diazepin-3-yl)-urea] | 8.57
22 | Cc1cccc(NC(=O)NC2N=C(c3ccccc3)c3ccccc3N(Cc3ncc[nH]3)C2=O)c1 (configuration not stated) [1-[1-(1H-Imidazol-2-ylmethyl)-2-oxo-5-phenyl-2,3-dihydro-1H-benzo[e][1,4]diazepin-3-yl]-3-m-tolyl-urea] | 7.23
23 | Cc1cccc(NC(=O)NC2N=C(c3ccccc3)c3ccccc3N(Cc3cnc[nH]3)C2=O)c1 (configuration not stated) [1-[1-(1H-Imidazol-4-ylmethyl)-2-oxo-5-phenyl-2,3-dihydro-1H-benzo[e][1,4]diazepin-3-yl]-3-m-tolyl-urea] | 8.10
24 | COc1cccc(NC(=O)NC2N=C(c3ccccc3)c3ccccc3N(CCN(C)C)C2=O)c1 (configuration not stated) [1-[1-(2-Dimethylamino-ethyl)-2-oxo-5-phenyl-2,3-dihydro-1H-benzo[e][1,4]diazepin-3-yl]-3-(3-methoxy-phenyl)-urea] | 6.72
25 | Cc1cccc(NC(=O)NC2N=C(c3ccccc3)c3ccccc3N(CCN(C)C)C2=O)c1 (configuration not stated) [1-[1-(2-Dimethylamino-ethyl)-2-oxo-5-phenyl-2,3-dihydro-1H-benzo[e][1,4]diazepin-3-yl]-3-m-tolyl-urea] | 7.59
26 | Cc1cccc(NC(=O)NC2N=C(c3ccccc3)c3ccccc3N(CCO)C2=O)c1 (configuration not stated) [1-[1-(2-Hydroxy-ethyl)-2-oxo-5-phenyl-2,3-dihydro-1H-benzo[e][1,4]diazepin-3-yl]-3-m-tolyl-urea] | 7.36
27 | O=C(Nc1ccc(Cl)cc1)NC1N=C(c2ccccc2)c2ccccc2N(C[C@@H](O)CCl)C1=O (some centres not stated) [1-[1-(3-Chloro-2-hydroxy-propyl)-2-oxo-5-phenyl-2,3-dihydro-1H-benzo[e][1,4]diazepin-3-yl]-3-(4-chloro-phenyl)-urea] | 8.22

— BindingDB's records for doi:10.1021/jm00078a018 (Merck Research Laboratories, 1994)
